Data reported in patent publication US12186424B2, “Compositions and methods for treating pterygium recurrence” (Cloudbreak Therapeutics, LLC, priority 2015, dated 2025).
Entries after “also recorded” stand apart in the source; their conditions may differ.

Columns and labels:
[1] = system: corneal neovascularization (NV); assay: Human pterygium mouse model, corneal neovascularization score; format: in vivo, athymic nude mice; settings: vs day 7 baseline, score 0 through 3, 0.2% nintedanib, 0.05% sunitinib, 0.002% mitomycin or combination
[2] = system: human pterygium epithelial cells (hPECs); assay: Human pterygium mouse model, corneal pterygium lesion size; settings: vs day 7 baseline; 0.2% nintedanib, 0.05% sunitinib, 0.002% mitomycin or combination
[3] = biological target: Src (Homo sapiens, UniProt P12931); settings: sources as Table 1 footnote; cited from earlier work
[4] = system: suture-induced neovascularization in the rabbit cornea; assay: Rabbit cornea suture model of neovascularization; format: in vivo
Experimental: The rabbit cornea suture model was established to assess drug effects on cornea neovascularization (Ko et al. Cornea. 2013; 32(5): 689-695; Perez-Santonj a et al. Am J Ophthalmol. 2010; 150(4):519-528). […] Thirty six female Zealand White rabbits were used to perform the study. […] The animals were treated in both eyes as described in Table 4. [table] During the study, the animals were closely observed for various ocular indications as well as general physical conditions including body weight. […] NIH ImageJ® software was used to analyze the ocular images. Each image was opened in ImageJ®, the scale was calibrated using the ruler in the photograph and the neovascularized area on the cornea near the suture was selected by the selection tool. […] The results were plotted as histograms of average with standard deviation for easy comparison.

[5] = rabbit, in vivo
[6] = rabbits with corneal sutures dosed with sunitinib for 7 days (Perez-Santonja 2010); cited from earlier work
[7] = 0.05% BID topical, Day 10 (after 2 days of treatment)
[8] = 0.05% BID topical, Day 12 (after 4 days of treatment)
[9] = 0.05% BID topical, Day 14 (after 6 days of treatment)
[10] = 0.05% TID topical, Day 10 (after 2 days of treatment)
[11] = 0.05% TID topical, Day 12 (after 4 days of treatment)
[12] = 0.05% TID topical, Day 14 (after 6 days of treatment)
[13] = 0.2% BID topical, Day 10 (after 2 days of treatment)
[14] = 0.2% BID topical, Day 12 (after 4 days of treatment)
[15] = 0.2% BID topical, Day 14 (after 6 days of treatment)
[16] = 0.2% TID topical, Day 10 (after 2 days of treatment)
[17] = 0.2% TID topical, Day 12 (after 4 days of treatment)
[18] = 0.2% TID topical, Day 14 (after 6 days of treatment)

Src, sequence (P12931 whole entry, species assumed): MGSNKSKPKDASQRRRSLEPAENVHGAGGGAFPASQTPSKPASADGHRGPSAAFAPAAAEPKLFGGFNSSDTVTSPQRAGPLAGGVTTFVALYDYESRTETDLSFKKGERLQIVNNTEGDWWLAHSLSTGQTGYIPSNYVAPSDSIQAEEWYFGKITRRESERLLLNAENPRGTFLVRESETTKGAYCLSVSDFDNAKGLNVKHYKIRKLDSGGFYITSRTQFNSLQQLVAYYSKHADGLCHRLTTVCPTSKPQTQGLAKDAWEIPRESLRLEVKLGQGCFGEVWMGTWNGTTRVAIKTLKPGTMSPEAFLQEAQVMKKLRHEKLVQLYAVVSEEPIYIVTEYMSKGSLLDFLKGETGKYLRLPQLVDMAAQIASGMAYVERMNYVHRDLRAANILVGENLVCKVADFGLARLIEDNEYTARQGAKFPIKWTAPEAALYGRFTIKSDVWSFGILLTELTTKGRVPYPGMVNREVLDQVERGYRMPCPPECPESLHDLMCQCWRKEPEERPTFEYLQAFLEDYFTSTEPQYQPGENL

CO[C@@]12[C@H](COC(N)=O)C3=C(C(=O)C(C)=C(N)C3=O)N1C[C@@H]1N[C@@H]12 [MMC]
Effect on corneal neovascularization score (in words) ([1]; listed as Mitomycin): reduced neovascularization score, with significant reductions on day 17
Effect on corneal neovascularization score (in words) ([1]; listed as mitomycin): reduced the neovascularization on cornea and the reduction was significant comparing levels on day 17 vs the baseline on day 7
Effect on pterygium lesion area on mouse cornea (in words) [2]: showed a trend of reduction in pterygium areas but didn't reach statistical significance at any of the time points; also recorded: showed a trend of reduction of pterygium lesion area but the differences at each time points from the day 7 baseline are not statistically significant

COc1cc2c(Oc3ccc4[nH]c(C)cc4c3F)ncnc2cc1OCCCN1CCCC1 [Cediranib]
IC50 [3]: 130 nM

COC(=O)c1ccc2c(c1)NC(=O)/C2=C(\Nc1ccc(N(C)C(=O)CN2CCN(C)CC2)cc1)c1ccccc1 [Nintedanib, Methyl (3Z)-3-{[(4-{methyl[(4-methylpiperazin-1-yl)acetyl]amino}phenyl)amino] (phenyl)methylidene}-2-oxo-2,3-dihydro-1H-indole-6-carboxylate]
Neovascular Area [4, 7]: 5.97 mm^2
Neovascular Area Mean Percent Change over Day 7 Baseline (− sign indicates decrease) [4, 7]: 64.08%
Neovascular Area [4, 8]: 5.03 mm^2
Neovascular Area Mean Percent Change over Day 7 Baseline (− sign indicates decrease) [4, 8]: 45.56%
Neovascular Area [4, 9]: 7.20 mm^2
Neovascular Area Mean Percent Change over Day 7 Baseline (− sign indicates decrease) [4, 9]: 99.48%
Neovascular Area [4, 10]: 3.23 mm^2
Neovascular Area Mean Percent Change over Day 7 Baseline (− sign indicates decrease) [4, 10]: 1.99%
Neovascular Area [4, 11]: 2.14 mm^2
Neovascular Area Mean Percent Change over Day 7 Baseline (− sign indicates decrease) [4, 11]: −27.87%
Neovascular Area [4, 12]: 4.01 mm^2
Neovascular Area Mean Percent Change over Day 7 Baseline (− sign indicates decrease) [4, 12]: 32.66%
Neovascular Area [4, 13]: 3.32 mm^2
Neovascular Area Mean Percent Change over Day 7 Baseline (− sign indicates decrease) [4, 13]: 12.09%
Neovascular Area [4, 14]: 4.15 mm^2
Neovascular Area Mean Percent Change over Day 7 Baseline (− sign indicates decrease) [4, 14]: 37.15%
Neovascular Area [4, 15]: 5.44 mm^2
Neovascular Area Mean Percent Change over Day 7 Baseline (− sign indicates decrease) [4, 15]: 73.51%
Neovascular Area [4, 16]: 2.48 mm^2
Neovascular Area Mean Percent Change over Day 7 Baseline (− sign indicates decrease) [4, 16]: −16.84%
Neovascular Area [4, 17]: 2.56 mm^2
Neovascular Area Mean Percent Change over Day 7 Baseline (− sign indicates decrease) [4, 17]: −13.80%
Neovascular Area [4, 18]: 2.88 mm^2
Neovascular Area Mean Percent Change over Day 7 Baseline (− sign indicates decrease) [4, 18]: −1.51%
Effect on suture-induced neovascularization in the rabbit cornea (in words) ([4]; 0.2% or 0.05% topical, BID or TID, days 8 to 15): marked inhibitory effect on suture-induced neovascularization in the rabbit cornea
Potential toxicity: abnormal lens with incomplete lenticular opacity [5]: none was observed
Effect on corneal neovascularization score (in words) [1]: reduced neovascularization score on the cornea during the treatments with the level on day 17 showing a significant difference from the baseline on day 7
Effect on corneal neovascularization score (in words) ([1]; listed as nintedanib): reduced the neovascularization on cornea and the reduction was significant comparing levels on day 17 vs the baseline on day 7
Effect on pterygium lesion area on mouse cornea (in words) [2]: led to a reduction of the pterygium area on day 14 and day 17 in comparison to the baseline level on day 7; also recorded: reduced pterygium lesion area on mouse cornea

CCN(CC)CCNC(=O)c1c(C)[nH]c(/C=C2\C(=O)Nc3ccc(F)cc32)c1C [Sunitinib]
Anterior chamber cellular reaction [6]: an anterior chamber cellular reaction was observed on day 1
Iris surface staining (drug deposits) [6]: Iris surface yellowish staining, which represents sunitinib deposits on the iris surface was observed during the whole dosing period
Neovascular Area [4, 10]: 3.58 mm^2
Neovascular Area Mean Percent Change over Day 7 Baseline (− sign indicates decrease) [4, 10]: 10.80%
Neovascular Area [4, 11]: 4.62 mm^2
Neovascular Area Mean Percent Change over Day 7 Baseline (− sign indicates decrease) [4, 11]: 49.72%
Neovascular Area [4, 12]: 5.96 mm^2
Neovascular Area Mean Percent Change over Day 7 Baseline (− sign indicates decrease) [4, 12]: 98.38%
Potential toxicity: abnormal lens with incomplete lenticular opacity [5]: abnormal lens with incomplete lenticular opacity was observed in one rabbit
